Test results published in PMC8954547, “Nonpeptidic Z360-Analogs Tagged with Trivalent Radiometals as Anti-CCK2R Cancer Theranostic Agents: A Preclinical Study” (Pharmaceutics, 2022).

Assays:
HEK293-CCK2i4svR cells = assay: Radioligand uptake and internalization in HEK293-CCK2i4svR cells; type: cell-based, human
Protocol: A day before the experiment, HEK293-CCK2i4svR cells were seeded in six-well plates. The next day, cells were rinsed with ice-cold internalization medium (IM: DMEM Glutamax-I, supplemented by 1% (v/v) FBS) and then the fresh medium was added (1.2 mL) at 37 °C. A further portion of IM (150 µL) was added in the upper well-row, and DG2 solution in IM (150 µL) was added in the lower row (to a final concentration of 1 μM; non-specific series). Each of the test radioligands, [^67Ga]Ga/[^111In]In/[^177Lu]Lu-GAS1/3 and [^67Ga]Ga/[^111In]In-GAS2, was finally added (250 fmol total conjugates in 150 μL 0.5% BSA-PBS) in all the wells and the plates were incubated at for 1 h at 37 °C in an Incubator-Orbital Shaker unit (MPM Instr. SrI, Bernareggio, MI, Italy); [^111In]In-GAS1/2/3 were incubated for 15 min, 30 min, 1 h and 2 h. At the predetermined time points, the plates were placed on ice, the medium was collected, and the plates were rinsed with 0.5% BSA-PBS (1 mL). Cells were subsequently treated with an acid-wash solution (2 × 600 µL; 50 mM glycine buffer pH 2.8, 0.1 M NaCl) and the fractions collected (membrane-bound). After briefly washing with 0.5% BSA-PBS (1 mL), the cells were lysed with 1 N NaOH (2 × 600 µL), and the fractions were collected (internalized). The radioactivity content of collected fractions was counted in the gamma counter, and the percentage of internalized and membrane-bound fractions per time point were calculated with Microsoft Excel. Specific internalized and membrane-bound counts were determined by subtracting the respective non-specific (in the presence of 1 μM DG2) from the respective total counts. Results represent specific internalized/membrane bound ± SD of total added radioactivity per well from three experiments performed in triplicate.

[1] = tested on: SCID mice bearing twin HEK293-CCK2i4svR and wtHEK293 tumors; assay: Biodistribution in SCID mice bearing twin HEK293-CCK2i4svR and wtHEK293 xenografts; type: in vivo
Procedure, shortened: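 Uptake is expressed as %IA/g (mean ± SD, n = 4) from gamma counting of blood, organs and tumours collected at set times: 1, 4 and 24 h pi for ^67Ga, 4 and 24 h for ^111In (±gelofusine), 4–96 h for ^177Lu. Radioligands were given iv at 7–40 pmol to SCID mice bearing twin CCK2i4svR-transfected and wild-type HEK293 xenografts.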

[2] = tested on: HEK293-CCK2i4svR and wtHEK293 xenografts; assay: SPECT/CT of HEK293-CCK2i4svR and wtHEK293 xenografts; type: in vivo, mice; details: 4 h and 24 h pi
Protocol: For SPECT/CT imaging, six mice bearing twin HEK293-CCK2i4svR and wtHEK293 tumors were injected in the tail vein with a bolus containing [^111In]In-GAS1/2/3 (100 μL, 9–12 MBq associated with 3 nmol total injected analog in-vehicle: saline/EtOH 9/1 v/v). Mice were euthanized at 4 h and 24 h pi. Tomographic SPECT/CT imaging was performed with the y-CUBE/x-CUBE systems (Molecubes, Belgium). The SPECT system is based on monolithic NaI detectors attached to SiPMs, with a 0.6 mm intrinsic resolution. The CT system is based on a structured CMOS detector of CsI with pixels of 75 µm and operates between 35–80 kVp, 10–500 µA tube current, with a 33 µm fixed focal spot size. SPECT scans were acquired 4 h pi and 24 h pi, with a 40–50 min duration protocol based on the injected activity, and each SPECT scan was succeeded by a CT scan, following General-Purpose protocol under 50 kVp, for co-registration purposes. SPECT images were reconstructed using the MLEM reconstruction method with a 250 µm voxel size and 500 iterations. CT images were reconstructed using the ISRA reconstruction method with a 100 µm voxel size.
Images were exported and post-processed on VivoQuant software, version 4.0 (Invicro, Boston). A smoothing median filter (0.6 mm, spherical window) was applied to the images, and the bladder was removed for consistency purposes. Normalization of images was performed (i.e., all images having the same color scale range values) to achieve a direct visual comparison between the different groups.

Biodistribution, Blood ([1]; 4 h pi): 2.42 ± 0.94 %IA/g
Biodistribution, CCK2i4svR(+) Tumor ([1]; 4 h pi): 19.83 ± 1.35 %IA/g
Biodistribution, CCK2i4svR(-) Tumor ([1]; 4 h pi): 0.85 ± 0.37 %IA/g
Biodistribution, Femur ([1]; 4 h pi): 0.60 ± 0.14 %IA/g
Biodistribution, Heart ([1]; 4 h pi): 0.81 ± 0.28 %IA/g
Biodistribution, Intestines ([1]; 4 h pi): 1.66 ± 0.33 %IA/g
Biodistribution, Kidneys ([1]; 4 h pi): 9.32 ± 0.68 %IA/g
Biodistribution, Liver ([1]; 4 h pi): 2.78 ± 0.27 %IA/g
Biodistribution, Lungs ([1]; 4 h pi): 1.36 ± 0.37 %IA/g
Biodistribution, Muscle ([1]; 4 h pi): 0.31 ± 0.13 %IA/g
Biodistribution, Pancreas ([1]; 4 h pi): 0.86 ± 0.23 %IA/g
Biodistribution, Spleen ([1]; 4 h pi): 0.69 ± 0.12 %IA/g
Biodistribution, Stomach ([1]; 4 h pi): 0.91 ± 0.39 %IA/g
Biodistribution, Blood ([1]; 24 h pi): 0.08 ± 0.01 %IA/g
Biodistribution, CCK2i4svR(+) Tumor ([1]; 24 h pi): 11.53 ± 1.93 %IA/g
Biodistribution, CCK2i4svR(-) Tumor ([1]; 24 h pi): 0.40 ± 0.21 %IA/g
Biodistribution, Femur ([1]; 24 h pi): 0.27 ± 0.09 %IA/g
Biodistribution, Heart ([1]; 24 h pi): 0.16 ± 0.02 %IA/g
Biodistribution, Intestines ([1]; 24 h pi): 0.48 ± 0.14 %IA/g
Biodistribution, Kidneys ([1]; 24 h pi): 4.15 ± 1.06 %IA/g
Biodistribution, Liver ([1]; 24 h pi): 1.07 ± 0.26 %IA/g
Biodistribution, Muscle ([1]; 24 h pi): 0.08 ± 0.01 %IA/g
Biodistribution, Pancreas ([1]; 24 h pi): 0.17 ± 0.04 %IA/g
Biodistribution, Spleen ([1]; 24 h pi): 0.43 ± 0.09 %IA/g
Biodistribution, Stomach ([1]; 24 h pi): 0.35 ± 0.21 %IA/g
Background clearance / excretion route ([1]; mouse, in vivo): predominantly cleared via the kidneys
SPECT/CT uptake in CCK2i4svR expressing tumors [2]: Intense uptake
SPECT/CT uptake in wtHEK293 tumors devoid of CCK2i4svR expression [2]: no uptake is evident
Compound: CC(C)(C)C(=O)CN1C(=O)[C@H](NC(=O)Nc2cccc(C(=O)NCCOCCOCCOCCNC(=O)[C@@H](CCC(=O)O)NC(=O)CCC(C(=O)O)N3CCN(CC(=O)[O-])CCN(CC(=O)[O-])CCN(CC(=O)[O-])CC3)c2)CN(C2CCCCC2)c2ccccc21.[111In+3] (stereo partly shown) [[^111In]In-GAS3]
Internalized to membrane-bound ratio (HEK293-CCK2i4svR cells): 4.1
Internalized fraction (HEK293-CCK2i4svR cells; 1 h 37 °C, specific): 11.12 ± 0.79 % of total added activity
Cell uptake (internalized + membrane-bound) (HEK293-CCK2i4svR cells; 1 h 37 °C, specific, of total added activity): 13.81 ± 0.89%
